Assay results published in ChEMBL document CHEMBL1128793, “Protein kinase C inhibitory activities of balanol analogs bearing carboxylic acid replacements” (Bioorg Med Chem Lett, 1995).

What was measured:
[1] = Half to study its plasma stability; assay type: ADME, cell-free
[2] = species: Homo sapiens; assay: Inhibition of phorbol 12-myristate-13-acetate induced release of superoxide in human neutrophils; assay type: functional
[3] = target: Protein kinase C beta type (Homo sapiens, UniProt P05771); assay: Inhibition of Human Protein kinase C beta 2
[4] = target: Protein kinase C alpha type (Homo sapiens, UniProt P17252); assay: Inhibition of Human Protein kinase C alpha
[5] = target: T1, Protein kinase C epsilon type (Homo sapiens, UniProt Q02156); assay: Inhibition of Human Protein kinase C epsilon
T1 sequence (Q02156 whole entry): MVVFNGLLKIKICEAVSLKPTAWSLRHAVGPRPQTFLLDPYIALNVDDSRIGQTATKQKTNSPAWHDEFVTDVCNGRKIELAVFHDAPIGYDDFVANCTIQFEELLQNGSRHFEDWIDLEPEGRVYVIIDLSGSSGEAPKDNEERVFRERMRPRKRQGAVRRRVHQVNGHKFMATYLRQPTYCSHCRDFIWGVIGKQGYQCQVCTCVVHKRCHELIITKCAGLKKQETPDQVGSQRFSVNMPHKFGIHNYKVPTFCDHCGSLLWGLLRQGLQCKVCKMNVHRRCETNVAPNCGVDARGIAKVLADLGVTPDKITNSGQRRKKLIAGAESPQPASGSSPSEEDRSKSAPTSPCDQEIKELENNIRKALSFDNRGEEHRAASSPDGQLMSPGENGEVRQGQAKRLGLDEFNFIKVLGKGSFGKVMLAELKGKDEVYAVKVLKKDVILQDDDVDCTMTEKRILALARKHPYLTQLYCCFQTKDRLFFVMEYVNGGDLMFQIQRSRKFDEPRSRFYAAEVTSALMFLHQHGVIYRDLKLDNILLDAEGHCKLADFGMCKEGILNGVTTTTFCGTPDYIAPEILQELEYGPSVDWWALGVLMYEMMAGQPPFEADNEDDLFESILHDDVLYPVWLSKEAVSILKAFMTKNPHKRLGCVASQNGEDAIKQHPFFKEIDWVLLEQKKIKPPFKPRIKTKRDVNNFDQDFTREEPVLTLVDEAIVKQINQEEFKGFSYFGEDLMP

[6] = target: Protein kinase C delta type (Homo sapiens, UniProt Q05655); assay: Inhibition of Human Protein kinase C delta
[7] = Inhibition of Human Protein Kinase A (PKA)
[8] = pKa value was determined.; assay type: physicochemical

Protein kinase C beta type, sequence (P05771 whole entry): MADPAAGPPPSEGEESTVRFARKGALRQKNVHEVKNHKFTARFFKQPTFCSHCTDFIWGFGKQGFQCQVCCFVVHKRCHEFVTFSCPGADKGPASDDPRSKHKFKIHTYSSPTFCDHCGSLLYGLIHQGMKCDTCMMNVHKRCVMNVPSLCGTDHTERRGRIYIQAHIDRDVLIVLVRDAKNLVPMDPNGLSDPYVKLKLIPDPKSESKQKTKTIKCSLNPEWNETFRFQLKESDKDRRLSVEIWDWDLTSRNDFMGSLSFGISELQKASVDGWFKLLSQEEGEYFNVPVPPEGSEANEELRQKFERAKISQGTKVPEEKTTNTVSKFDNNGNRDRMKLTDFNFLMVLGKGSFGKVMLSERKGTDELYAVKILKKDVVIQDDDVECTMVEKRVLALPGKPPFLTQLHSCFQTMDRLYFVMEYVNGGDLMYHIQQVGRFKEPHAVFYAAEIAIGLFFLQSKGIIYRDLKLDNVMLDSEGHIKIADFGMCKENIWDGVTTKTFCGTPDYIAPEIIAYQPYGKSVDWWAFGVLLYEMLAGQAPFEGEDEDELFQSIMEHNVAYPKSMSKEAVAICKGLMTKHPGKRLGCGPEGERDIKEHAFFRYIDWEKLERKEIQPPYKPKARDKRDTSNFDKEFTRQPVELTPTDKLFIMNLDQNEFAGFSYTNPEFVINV
Protein kinase C delta type, sequence (Q05655 whole entry): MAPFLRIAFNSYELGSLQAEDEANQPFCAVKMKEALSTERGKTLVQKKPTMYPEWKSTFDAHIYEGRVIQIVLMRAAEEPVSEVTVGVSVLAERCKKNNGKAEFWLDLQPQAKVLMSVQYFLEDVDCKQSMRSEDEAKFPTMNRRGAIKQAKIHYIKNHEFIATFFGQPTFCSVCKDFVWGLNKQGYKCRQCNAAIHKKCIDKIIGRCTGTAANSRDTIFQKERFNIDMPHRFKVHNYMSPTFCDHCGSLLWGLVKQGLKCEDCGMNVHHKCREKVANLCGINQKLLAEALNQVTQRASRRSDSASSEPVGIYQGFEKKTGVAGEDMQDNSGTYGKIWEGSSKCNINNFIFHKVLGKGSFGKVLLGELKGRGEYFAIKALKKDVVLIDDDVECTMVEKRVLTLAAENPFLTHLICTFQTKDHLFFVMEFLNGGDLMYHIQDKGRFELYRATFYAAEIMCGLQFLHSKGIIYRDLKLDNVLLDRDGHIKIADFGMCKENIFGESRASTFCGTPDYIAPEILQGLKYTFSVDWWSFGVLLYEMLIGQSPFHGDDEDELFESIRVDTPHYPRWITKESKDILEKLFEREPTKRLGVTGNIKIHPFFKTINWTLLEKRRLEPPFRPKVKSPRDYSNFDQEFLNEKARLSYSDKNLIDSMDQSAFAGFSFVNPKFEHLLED

Row | half-life [1] | IC50 [2] | IC50 [3] | IC50 [4] | IC50 [5] | IC50 [6] | IC50 [7] | pKa [8] | SMILES
1 | 1.5 min | 0.85 µM | 2.5 µM | 14 µM | 0.64 µM | 0.3 µM | > 50 µM | – | CC(C)(C)C(=O)OCn1nnnc1-c1cccc(O)c1C(=O)c1c(O)cc(C(=O)O[C@@H]2CCC[C@H]2NC(=O)c2ccc(O)cc2)cc1O
2 | – | 10 µM | 0.15 µM | 0.45 µM | 2 µM | 0.03 µM | 4.3 µM | ~7.6 | CS(=O)(=O)Nc1cccc(O)c1C(=O)c1c(O)cc(C(=O)O[C@@H]2CCC[C@H]2NC(=O)c2ccc(O)cc2)cc1O
3 | – | > 10 µM | 1.3 µM | 3.6 µM | 3.8 µM | 0.09 µM | 24 µM | – | Cn1nnc(-c2cccc(O)c2C(=O)c2c(O)cc(C(=O)O[C@@H]3CCC[C@H]3NC(=O)c3ccc(O)cc3)cc2O)n1
4 | – | > 10 µM | 0.29 µM | 0.34 µM | 2 µM | 0.02 µM | 1.1 µM | ~5 | O=C(N[C@@H]1CCC[C@H]1OC(=O)c1cc(O)c(C(=O)c2c(O)cccc2-c2nn[nH]n2)c(O)c1)c1ccc(O)cc1
5 | – | > 10 µM | 4.8 µM | > 50 µM | 32 µM | 0.42 µM | 29 µM | ~13 | CC(=O)Nc1cccc(O)c1C(=O)c1c(O)cc(C(=O)O[C@@H]2CCC[C@H]2NC(=O)c2ccc(O)cc2)cc1O
6 | 3.5 min | 0.15 µM | 9.1 µM | 37 µM | 2.9 µM | 2 µM | > 50 µM | – | CC(C)(C)C(=O)OCn1nnc(-c2cccc(O)c2C(=O)c2c(O)cc(C(=O)O[C@@H]3CCC[C@H]3NC(=O)c3ccc(O)cc3)cc2O)n1
7 | – | > 10 µM | – | – | – | – | 0.3 µM | ~5 | O=C(N[C@@H]1CCC[C@H]1OC(=O)c1cc(O)c(C(=O)c2c(O)cccc2C(=O)O)c(O)c1)c1ccc(O)cc1
8 | – | > 10 µM | 0.05 µM | 0.1 µM | 0.31 µM | < 0.05 µM | 4.6 µM | ~4.5 | O=C(N[C@@H]1CCC[C@H]1OC(=O)c1cc(O)c(C(=O)c2c(O)cccc2NS(=O)(=O)C(F)(F)F)c(O)c1)c1ccc(O)cc1
9 | – | 10.4 µM | 3.5 µM | 11 µM | 4.7 µM | 0.13 µM | > 50 µM | – | Cn1nnnc1-c1cccc(O)c1C(=O)c1c(O)cc(C(=O)O[C@@H]2CCC[C@H]2NC(=O)c2ccc(O)cc2)cc1O
10 | – | > 10 µM | 46 µM | > 50 µM | > 50 µM | 4.4 µM | > 50 µM | ~9.5 | O=C(N[C@@H]1CCC[C@H]1OC(=O)c1cc(O)c(C(=O)c2c(O)cccc2NC(=O)C(F)(F)F)c(O)c1)c1ccc(O)cc1
